System: hepatocytes
Assay: Seq-Well scRNA-Seq of hepatocytes after APAP overdose (signature scores, DEG vs untreated)
Assay type: in vivo, mouse
Details: A6 vs UT

CC(=O)Nc1ccc(O)cc1 [APAP, acetaminophen]
Slc25a10 avg_logFC: −0.2828
Slc25a10 pct.1: 0.351
Slc25a47 avg_logFC: 0.4289
Slc25a51 A6logFC: 0.264
Slc25a51 avg_logFC: 0.264
Slc25a51 pct.1: 0.308
Slc26a1 A6logFC: −0.2817
Slc26a1 avg_logFC: −0.2817
Slc26a1 pct.1: 0.329
Slc30a1 A6logFC: 0.2506
Slc30a1 avg_logFC: 0.2506
Slc30a1 pct.1: 0.346
Slc35d1 A6logFC: 0.3094
Slc35d1 avg_logFC: 0.3094
Slc35d1 pct.1: 0.489
Slc38a3 avg_logFC: −0.4098
Slc38a3 pct.1: 0.663
Slc39a14 avg_logFC: 1.013
Slc40a1 avg_logFC: 0.467
Slc40a1 pct.1: 0.456
Slirp A6logFC: −0.3085
Smoc1 A6logFC: 0.2616
Smoc1 avg_logFC: 0.2616
Smoc1 pct.1: 0.368
Snx10 A6logFC: 0.2856
Snx10 avg_logFC: 0.2856
Snx10 pct.1: 0.341
Sod1 avg_logFC: −0.4393
Son avg_logFC: 0.5429
Son pct.1: 0.601
Sord avg_logFC: −0.3836
Sord pct.1: 0.754
Spag9 A6logFC: 0.3188
Spag9 avg_logFC: 0.3188
Spag9 pct.1: 0.415
Spcs1 A6logFC: −0.2629
Spcs1 avg_logFC: −0.2629
Spcs1 pct.1: 0.236
Spp2 avg_logFC: −0.3821
Spp2 pct.1: 0.334
Spred1 avg_logFC: 0.3884
Spred1 pct.1: 0.308
Sptan1 A6logFC: 0.3127
Sptan1 avg_logFC: 0.3127
Sptan1 pct.1: 0.348
Sptbn1 avg_logFC: 0.4227
Sptbn1 pct.1: 0.439
Sqstm1 avg_logFC: 0.7432
Srd5a1 A6logFC: −0.2773
Srd5a1 avg_logFC: −0.2773
Srd5a1 pct.1: 0.308
Srgn avg_logFC: 0.9341
Srrm2 A6logFC: 0.3282
Srrm2 avg_logFC: 0.3282
Srrm2 pct.1: 0.456
Srxn1 avg_logFC: 1.878
Ssr4 avg_logFC: −0.5076
Ssr4 pct.1: 0.413
St3gal1 avg_logFC: 0.5287
St3gal4 A6logFC: 0.275
St3gal4 avg_logFC: 0.275
St3gal4 pct.1: 0.368
St3gal5 avg_logFC: 0.6076
Stard10 avg_logFC: −0.3383
Stard10 pct.1: 0.876
Stat3 avg_logFC: 0.7154
Stbd1 A6logFC: −0.2732
Steap4 avg_logFC: 0.4372
Steap4 pct.1: 0.37
Stk40 avg_logFC: 0.5364
Suco A6logFC: 0.251
Suco avg_logFC: 0.251
Suco pct.1: 0.26
Sult1a1 avg_logFC: 0.319
Sult1a1 pct.1: 0.685
Supt6 A6logFC: 0.2913
Supt6 avg_logFC: 0.2913
Supt6 pct.1: 0.291
Swi5 A6logFC: −0.2621
Swi5 avg_logFC: −0.2621
Swi5 pct.1: 0.341
Syncrip A6logFC: 0.2748
Syncrip avg_logFC: 0.2748
Syncrip pct.1: 0.365
Tab2 A6logFC: 0.3484
Tab2 avg_logFC: 0.3484
Tab2 pct.1: 0.425
Tacc2 avg_logFC: 0.3293
Tacc2 pct.1: 0.289
Tars avg_logFC: 0.4921
Tars pct.1: 0.666
Tatdn2 avg_logFC: 0.3733
Tatdn2 pct.1: 0.334
Tbc1d15 avg_logFC: 0.4886
Tbc1d15 pct.1: 0.461
Tbca A6logFC: −0.2726
Tbca avg_logFC: −0.2726
Tbca pct.1: 0.284
Tcerg1 avg_logFC: 0.3575
Tcerg1 pct.1: 0.305
Tfpi2 avg_logFC: −0.3663
Tfpi2 pct.1: 0.155
Timm13 avg_logFC: −0.433
Timm13 pct.1: 0.418
Tiparp avg_logFC: 0.5456
Tjp2 avg_logFC: 0.4115
Tjp2 pct.1: 0.332
Tln1 A6logFC: 0.321
Tln1 avg_logFC: 0.321
Tln1 pct.1: 0.31
Tm4sf4 avg_logFC: 0.5126
Tm4sf4 pct.1: 0.484
Tmed5 avg_logFC: 0.4016
Tmed5 pct.1: 0.594
Tmem14c avg_logFC: −0.3685
Tmem14c pct.1: 0.332
Tmem37 A6logFC: −0.2822
Tmem86b A6logFC: −0.2582
Tmem87b avg_logFC: 0.4344
Tmem87b pct.1: 0.351
Tmem147 A6logFC: 0.2838
Tmem150a A6logFC: −0.2535
Tmem160 A6logFC: −0.339
Tmem205 avg_logFC: −0.7747
Tmem242 A6logFC: −0.2725
Tmem256 avg_logFC: −0.5185
Tmem256 pct.1: 0.375
Tmem258 A6logFC: −0.2769
Tmprss6 A6logFC: −0.2802
Tmprss6 avg_logFC: −0.2802
Tmprss6 pct.1: 0.551
Tmsb4x avg_logFC: 0.7806
Tnfrsf1a avg_logFC: 0.5996
Tnfrsf12a avg_logFC: 1.118
Tnks2 A6logFC: 0.3176
Tns1 avg_logFC: 0.4349
Tns1 pct.1: 0.403
Tpi1 A6logFC: −0.2616
Tpi1 avg_logFC: −0.2616
Tpi1 pct.1: 0.539
Tpr A6logFC: 0.4409
Tra2a avg_logFC: 0.7123
Trf avg_logFC: −0.2619
Trf pct.1: 0.988
Trib1 avg_logFC: 0.3317
Trib1 pct.1: 0.411
Trip11 A6logFC: 0.3479
Trip11 avg_logFC: 0.3479
Trip11 pct.1: 0.341
Trp53inp1 avg_logFC: 1.008
Tsc22d1 A6logFC: −0.2997
Tsc22d2 avg_logFC: 0.3911
Tsc22d2 pct.1: 0.353
Tsku avg_logFC: 0.3676
Tsku pct.1: 0.327
Tspan31 A6logFC: −0.2959
Tspan31 avg_logFC: −0.2959
Tspan31 pct.1: 0.415
Tspo A6logFC: −0.3157
Tsr1 avg_logFC: 0.3603
Tsr1 pct.1: 0.341
Ttc36 avg_logFC: −0.6606
Ttr avg_logFC: −0.5306
Tubb2a avg_logFC: 0.7494
Tubb6 avg_logFC: 0.5767
Tyrobp avg_logFC: 0.4666
Ubb A6logFC: −0.275
Ubc avg_logFC: −0.6618
Ubr4 A6logFC: 0.3301
Ubr4 avg_logFC: 0.3301
Ubr4 pct.1: 0.411
Ubr5 A6logFC: 0.3057
Ubr5 avg_logFC: 0.3057
Ubr5 pct.1: 0.399
Ugdh avg_logFC: 0.6331
Ugt2b5 avg_logFC: −0.6034
Ugt2b36 avg_logFC: −0.5834
Ugt3a2 A6logFC: −0.2586
Ugt3a2 avg_logFC: −0.2586
Ugt3a2 pct.1: 0.492
Uhrf1bp1l avg_logFC: 0.4198
Uhrf1bp1l pct.1: 0.399
Uox avg_logFC: −0.5531
Upp2 avg_logFC: −0.6903
Uqcr10 avg_logFC: −0.4519
Uqcr10 pct.1: 0.561
Uqcr11 avg_logFC: −0.6031
Uqcrb avg_logFC: −0.4084
Uqcrb pct.1: 0.425
Uqcrh avg_logFC: −0.4292
Uqcrh pct.1: 0.589
Urah avg_logFC: −0.7641
Usp4 avg_logFC: 0.28
Usp4 pct.1: 0.439
Usp7 A6logFC: 0.2873
Usp7 avg_logFC: 0.2873
Usp7 pct.1: 0.363
Usp9x avg_logFC: 0.3184
Usp9x pct.1: 0.451
Usp34 A6logFC: 0.2859
Usp34 avg_logFC: 0.2859
Usp34 pct.1: 0.37

From US20230053540A1, “TREATMENT OF LIVER INJURY” (Massachusetts Institute of Technology, priority 2019, published 2023)
